Data: PubChem BioAssay (NCI)
Values joined by “and” are separate entries in the source; they are usually repeats but may differ in a detail not shown here. Equal values may be shown once.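 Five compound concentrations were applied to cells in 96-well plates for 48 hours; endpoints were derived by simple linear interpolation of the resulting dose-response curve. Here, GI50 denotes the concentration required for 50% inhibition of growth. The concentration for full growth arrest is given as TGI.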

Tests used:
Assay in all cases: growth of human tumour cells (NCI), 48 h
CCRF-CEM leukemia = system: CCRF-CEM leukemia
DLD-1 colon = system: DLD-1 colon
KM12 colon = system: KM12 colon
M19-MEL melanoma = system: M19-MEL melanoma
MOLT-4 leukemia = system: MOLT-4 leukemia
OVCAR-5 ovarian = system: OVCAR-5 ovarian
U251 CNS = system: U251 CNS
UO-31 renal = system: UO-31 renal
NCI/ADR-RES ovarian = system: NCI/ADR-RES ovarian
T-47D breast = system: T-47D breast

Row | Compound | TGI (CCRF-CEM leukemia) | TGI (DLD-1 colon) | TGI (KM12 colon) | TGI (M19-MEL melanoma) | TGI (MOLT-4 leukemia) | TGI (OVCAR-5 ovarian) | TGI (U251 CNS) | TGI (UO-31 renal) | GI50 (CCRF-CEM leukemia) | GI50 (KM12 colon) | GI50 (MOLT-4 leukemia) | TGI (NCI/ADR-RES ovarian) | GI50 (T-47D breast) | GI50 (OVCAR-5 ovarian) | TGI (T-47D breast) | GI50 (U251 CNS) | GI50 (UO-31 renal) | GI50 (DLD-1 colon) | GI50 (M19-MEL melanoma)
1 | CCOC(=O)c1cc(/C=C/C(C)=C/C(=O)OC)oc1-c1ccccc1 | > 100 µM | > 100 µM | > 100 µM | > 100 µM | > 100 µM | > 100 µM | > 100 µM | > 100 µM | – | – | – | – | – | – | – | – | – | – | –
2 | Cc1nc2ccccc2c(=O)n1/N=C(\N=Nc1cc(Cl)ccc1Cl)c1cccc(-c2ccco2)c1 | > 10 µM | > 100 µM | > 100 µM | > 100 µM | > 100 µM | > 100 µM | > 100 µM | > 100 µM | – | – | – | – | – | – | – | – | – | – | –
3 | Cc1ccc(C2CC(c3ccc([N+](=O)[O-])cc3)=Nc3ccccc3S2)cc1 (centres undefined) | 34.2 µM | 85.5 µM | 75.2 µM | 45 µM | 69 µM | > 100 µM | – | > 100 µM | – | – | – | – | – | – | – | – | – | – | –
4 | O=C(CC(=O)c1ccc([N+](=O)[O-])cc1)C(=O)Nc1nccs1 | > 100 µM | > 100 µM | > 100 µM | – | > 100 µM | > 100 µM | > 100 µM | > 100 µM | – | – | – | – | – | – | – | – | – | – | –
5 | O=S1CSCS1 (centres undefined) | > 100 µM | > 100 µM | > 100 µM | > 100 µM | > 100 µM | > 100 µM | > 100 µM | > 100 µM | – | – | – | – | – | – | – | – | – | – | –
6 | COC1C(O)C(C)OC(OC2C(Oc3cccc4c(O)c5c(=O)oc6ccc(C)c7c(=O)oc(c34)c5c67)OC(C)C3O[C@H](c4ccccc4)OC32)C1O (some centres undefined) | 8.82 µM | 8.67 µM | 8.49 µM | 3.56 µM | 11.5 µM | 12.7 µM | 10.9 µM | 2.43 µM | 0.0752 µM and 0.0731 µM | 0.331 µM and 0.312 µM | 0.0334 µM and 0.0236 µM | 10.8 µM | 0.483 µM | – | – | – | – | – | –
7 | O=C(c1ccccc1)C(c1ccccc1)C1(O)C(=O)Nc2ccccc21 (centres undefined) | > 100 µM | > 100 µM | – | > 100 µM | > 100 µM | > 100 µM | – | > 100 µM | – | – | – | – | – | – | – | – | – | – | –
8 | CC1(C)C(c2ccccc2)C12CCC1(C2=O)C(c2ccccc2)C1(C)C (centres undefined) | 36.5 µM | – | – | 58.9 µM | 37.2 µM | 81.8 µM | 34.9 µM | 58.9 µM | – | – | – | – | – | – | – | – | – | – | –
9 | O=C(O)C1CCc2nnc(-c3ccccc3)n21 (centres undefined) | > 100 µM | > 100 µM | > 100 µM | > 100 µM | > 100 µM | – | > 100 µM | > 100 µM | – | – | – | – | – | – | – | – | – | – | –
10 | C/C=C(\C)c1cc(=O)c2c(C)cc3c(c2o1)C(=O)c1c(O)c(C2CC(C)(N(C)C)C(O)C(C)O2)cc(C2CC(N(C)C)C(O)C(C)O2)c1C3=O (centres undefined) | > 52 µM | > 35.2 µM | 2.42 µM and > 23 µM | 16.1 µM | 15.6 µM | – | 1.35 µM and 5.71 µM | – | – | – | 0.687 µM | – | – | 0.579 µM and 3.79 µM | 3.12 µM | 0.206 µM and 1.74 µM | 0.531 µM and 3.98 µM | – | –
11 | O=C1c2ccccc2C(=O)C2C1C1C(=O)c3ccccc3C(=O)C21 (centres undefined) | > 100 µM | > 100 µM | > 100 µM | > 100 µM | – | > 100 µM | > 100 µM | > 100 µM | – | – | – | – | – | – | – | – | – | – | –
12 | COc1c(C2=NC(C(C)C)CO2)ccc2ccccc12 (centres undefined) | > 100 µM | > 100 µM | > 100 µM | > 100 µM | 50.3 µM | > 100 µM | – | > 100 µM | – | – | – | – | – | – | – | – | – | – | –
13 | NC(C/[N+]([O-])=N/O)C(=O)O (centres undefined) | > 100 µM and 418 µM | > 500 µM | 31.1 µM and > 100 µM and 144 µM | > 373 µM | > 100 µM and 315 µM | > 100 µM and 230 µM | > 500 µM | > 100 µM and 235 µM | > 29.3 µM and 11.3 µM | 0.543 µM | 23.3 µM | > 434 µM | 198 µM | – | > 500 µM | 0.772 µM and 3.82 µM and 0.713 µM | 5.55 µM and 2.44 µM and 2.13 µM | – | –
14 | Cc1cc(=O)n(-c2ccccc2)c(=O)o1 | > 100 µM | > 100 µM | > 100 µM | > 100 µM | > 100 µM | > 100 µM | > 100 µM | > 100 µM | – | – | – | – | – | – | – | – | – | – | –
15 | CCCN(CCCN)/[N+]([O-])=N\O | > 100 µM | > 100 µM | > 100 µM | > 100 µM | > 100 µM | > 100 µM | > 100 µM | > 100 µM | – | – | – | – | – | – | – | – | – | – | –
16 | N=CCCN(CCC=N)c1ccc(/C=C2\CN(NC(=O)c3ccc(Cl)cc3)C(c3ccccc3)=N2)cc1 | > 100 µM | > 100 µM | > 100 µM | – | > 100 µM | > 100 µM | 76.1 µM | > 100 µM | – | – | – | – | – | – | – | – | – | – | –
17 | NC(N)=NS(=O)(=O)c1ccc(Nc2c3ccccc3nc3c(C(=O)N4CCN(CCO)CC4)cccc23)cc1 | > 100 µM | > 100 µM | > 100 µM | > 100 µM | > 100 µM | > 100 µM | > 100 µM | > 100 µM | – | – | – | – | – | – | – | – | – | – | –
18 | Cc1ccc(NC(=O)CC/C(CC(=O)C(C)(C)C)=N/NC(=O)C(N)=O)cc1C | > 100 µM | > 100 µM | > 100 µM | > 100 µM | > 100 µM | > 100 µM | > 100 µM | > 100 µM | – | – | – | – | – | – | – | – | – | – | –
19 | CN(C)c1ccc2c(c1)CN1C(=O)c3ccccc3C1=N2 | – | > 100 µM | > 100 µM | – | > 100 µM | > 100 µM | > 100 µM | > 100 µM | – | > 100 µM | > 100 µM | – | – | > 100 µM | – | > 100 µM | > 100 µM | > 100 µM | –
20 | COc1ccc(C2=Nc3ccccc3SC(C)C2)cc1 (centres undefined) | > 100 µM | > 100 µM | > 100 µM | > 100 µM | > 100 µM | > 100 µM | > 100 µM | > 100 µM | – | – | – | – | – | – | – | – | – | – | –
21 | CC(=O)[CH-]C(=O)c1ccccc1.CC(=O)[CH-]C(=O)c1ccccc1.COc1cccc([O-])c1[O-].[Ti+4] | > 100 µM | > 100 µM | > 100 µM | 89.7 µM | > 100 µM | > 100 µM | > 100 µM | > 100 µM | 6.42 µM | 33.4 µM | 33.1 µM | – | – | > 100 µM | – | 25.7 µM | > 100 µM | 69.2 µM | 32.4 µM
22 | N#CCCN(CCC#N)C(=O)c1cccc(C(=O)N(CCC#N)CCC#N)c1 | > 100 µM | > 100 µM | > 100 µM | > 100 µM | > 100 µM | > 100 µM | > 59.4 µM | > 100 µM | – | – | – | – | – | – | – | – | – | – | –
